Measurements: PMC6917776, “Discovery of a chemical probe for PRDM9” (Nature Communications, 2019)
Several values for one entry are separate records, joined by “and”; a condition that tells them apart may be missing. Equal values may be shown once.

System: H3K4me3 at known PRDM9 binding loci and control TSS loci
Assay: ChIP-qPCR of H3K4me3 in PRDM9-transfected HEK293T cells
Assay type: cell-based, human
Conditions: for 2^-dCq / dCq (IP-Input) / 2^-dCq (H3K4me3 IP relative to H3 IP) / Cq / 2^-dCq (H3K4me3 ChIP relative to H3 ChIP) / 2^-dCq (H3K4me3 ChIP-qPCR, IP relative to H3) / <Cq>: Antibody H3K4me3; for 2^-dCq / dCq (IP-Input) / Cq / <Cq>: Figure 7 Replicate 2; for 2^-dCq (H3K4me3 IP relative to H3 IP): ChIP-qPCR Replicate 1; for Cq: ChIP-qPCR single well; for 2^-dCq (H3K4me3 ChIP relative to H3 ChIP): Replicate 1; for 2^-dCq (H3K4me3 ChIP-qPCR, IP relative to H3) / H3K4me3 ChIP-qPCR 2^-dCq (IP-Input): Replicate 2; for H3K4me3 ChIP-qPCR 2^-dCq (IP-Input): H3K4me3 antibody relative to H3; for <Cq>: mean of two wells
Experimental: ChIP-qPCR assays were then conducted on known PRDM9 binding loci[26]. Ectopic expression of PRDM9^WT increased trimethylation of H3K4 (H3K4me3) at previously described PRDM9-specific intragenic and intergenic regions[26] (Fig. 7; Supplementary Fig. 12). […] The observed increases in H3K4me3 levels at intragenic and intergenic regions are therefore due directly to PRDM9 PR domain-dependent methylation activity, rather than through recruitment of other H3K4 methyltransferases or other indirect mechanisms.
ChIP qPCR analyses of H3K4me3 methylation levels of known PRDM9-bound loci and control loci. […] Concentrations used (µM) are indicated below each plot. (a–d) represent reported loci of PRDM9 methylation; (e, f) are transcriptional start sites (TSSs) which are not known loci of PRDM9 methylation. Data are normalized to total H3 and are presented as the mean ± upper and lower limits from two replicates. Representative plots of two independent experiments are shown in this figure. The coordinates and the genomic features associated with the assayed loci are indicated above each plot. Left Tailed Student's t-tests were performed by comparing DMSO (0 µM) treated cells to compound treated cells that have been transfected with the same plasmids. *p-value < 0.05 and **p-value < 0.01. Note that here we show a representative of two independent experiments (mean ± s.d of technical replicates) for our ChIP-qPCR experiments. Data obtained using this technique are inherently noisy due to stochastic differences in gene activity/histone positioning. Data are thus typically presented as representative rather than averaged. Source data are provided as a Source Data file.
HEK293T cells were transfected with 37.5 μg empty pcDNA3.1(+) vector (Invitrogen), or the same vector expressing either wild-type PRDM9 (PRDM9^WT) or a catalytically dead PRDM9 mutant (PRDM9^Mut) and 75 μL of Lipofectamine 2000 (Invitrogen) in 6 mL of Opti-MEM (GIBCO) for 48 h. […] ChIP assays were then performed as previously described. Briefly, cells were fixed in 1% formaldehyde and the fixation reaction was quenched in a final concentration of 0.1 M glycine. Cell pellets were first lysed in LB1 (50 mM HEPES-KOH pH 7.5, 140 mM NaCl, 1 mM EDTA, 10% Glycerol, 0.5% Igepal, 0.25% TritonX), washed once in LB2 Buffer (10 mM Tris-HCl pH 8, 200 mM NaCl, 1 mM EDTA, 0.5 mM EGTA) and finally sonicated in LB3 buffer (10 mM Tris-HCl pH 8, 100 mM NaCl, 1 mM EDTA, 0.5 mM EGTA, 0.1% Sodium deoxycholate, 0.5% N-laurosylsarcosine) using a bioruptor (Diagenode). Thereafter, 50 μg of chromatin was subjected to ChIP using the following antibodies purchased from Abcam: α-H3K4me3 (1:200, ab8580, lot:GR3207339-1) and α-H3 (1:250, ab1791, lot:GR300978-4). After extensive washing in RIPA wash buffer (50 mM HEPES-KOH pH 7.6, 100 mM LiCl, 1 mM EDTA, 1% Igepal, 0.7% Sodium Deoxycholate), DNA was eluted from beads. The eluted DNA was treated with RNase A and Proteinase K and purified using the QIAGEN PCR purification kit. qPCR was then carried out targeting the indicated loci (Supplementary Table 3). Upper and lower limits were defined by |2^−(dCq±s) − 2^−(∆Cq)|, where s = √((Standard deviation of Input Cq)^2 + (Standard deviation of Target Cq)^2). […]
formation. ChIP qPCR analyses of H3K4me3 methylation levels at known PRDM9-bound and control loci. Cells transfected with empty vector (negative control) or vectors overexpressing either wild-type PRDM9 (PRDM9 WT) or catalytically dead PRDM9 (PRDM9 MUT) were […]
Panels a-d represent reported loci of […]
(1 picture or pasted object on this page, not shown here)
PRDM9 methylation; e-f are TSSs which are not known sites of PRDM9 methylation. Data are normalized to total H3 and are presented as the mean ± upper and lower limits from two […]

[1] = Figure 7 E chr12:6643945-6644023 TSS (GAPDH), Plasmid Empty Vector, Drug Conc. 5
[2] = Figure 7 E chr12:6643945-6644023 TSS (GAPDH), Plasmid Empty Vector, Drug Conc. 10
[3] = Figure 7 E chr12:6643945-6644023 TSS (GAPDH), Plasmid PRDM9WT, Drug Conc. 5
[4] = Figure 7 E chr12:6643945-6644023 TSS (GAPDH), Plasmid PRDM9WT, Drug Conc. 10
[5] = Figure 7 F chr19:8510167-8510261 TSS (HNRNPM), Plasmid Empty Vector, Drug Conc. 5
[6] = Figure 7 F chr19:8510167-8510261 TSS (HNRNPM), Plasmid Empty Vector, Drug Conc. 10
[7] = Figure 7 F chr19:8510167-8510261 TSS (HNRNPM), Plasmid PRDM9WT, Drug Conc. 5
[8] = Figure 7 F chr19:8510167-8510261 TSS (HNRNPM), Plasmid PRDM9WT, Drug Conc. 10

SMILES: COc1cc(OC)cc(-c2noc(N3CCN(C)C4(CCN(c5ccccc5)CC4)C3)n2)c1 [MRK-740-NC]
- 2^-dCq (Plasmid PRDM9WT, Drug Conc. 5): 34.845
- dCq (IP-Input) (Plasmid PRDM9WT, Drug Conc. 5): -5.123
- 2^-dCq (Plasmid PRDM9WT, Drug Conc. 10): 50.1539
- dCq (IP-Input) (Plasmid PRDM9WT, Drug Conc. 10): -5.648
- 2^-dCq (H3K4me3 IP relative to H3 IP) [1]: 96.9166
- 2^-dCq (H3K4me3 IP relative to H3 IP) [2]: 40.6216
- 2^-dCq (H3K4me3 IP relative to H3 IP) [3]: 33.0164
- 2^-dCq (H3K4me3 IP relative to H3 IP) [4]: 25.1288
- 2^-dCq (H3K4me3 IP relative to H3 IP) [5]: 88.9762
- 2^-dCq (H3K4me3 IP relative to H3 IP) [6]: 43.9056
- 2^-dCq (H3K4me3 IP relative to H3 IP) [7]: 32.8222
- 2^-dCq (H3K4me3 IP relative to H3 IP) [8]: 26.0973
- Cq (Plasmid PRDM9WT, Drug Conc. 5): 21.4925 and 21.6408
- Cq (Plasmid PRDM9WT, Drug Conc. 10): 21.2248 and 20.9811
- 2^-dCq (H3K4me3 ChIP relative to H3 ChIP) (Figure 7 A, chr2:128811847-128811944 (Intergenic), Plasmid Empty Vector, Drug Conc. 5): 0.5813
- 2^-dCq (H3K4me3 ChIP relative to H3 ChIP) (Figure 7 A, chr2:128811847-128811944 (Intergenic), Plasmid Empty Vector, Drug Conc. 10): 0.3956
- 2^-dCq (H3K4me3 ChIP relative to H3 ChIP) (Figure 7 A, chr2:128811847-128811944 (Intergenic), Plasmid PRDM9WT, Drug Conc. 5): 2.494
- 2^-dCq (H3K4me3 ChIP relative to H3 ChIP) (Figure 7 A, chr2:128811847-128811944 (Intergenic), Plasmid PRDM9WT, Drug Conc. 10): 2.2717
- 2^-dCq (H3K4me3 ChIP relative to H3 ChIP) (Figure 7 B, chr8:49932778-49932856 (Intergenic), Plasmid Empty Vector, Drug Conc. 5): 0.3925
- 2^-dCq (H3K4me3 ChIP relative to H3 ChIP) (Figure 7 B, chr8:49932778-49932856 (Intergenic), Plasmid Empty Vector, Drug Conc. 10): 0.1726
- 2^-dCq (H3K4me3 ChIP relative to H3 ChIP) (Figure 7 B, chr8:49932778-49932856 (Intergenic), Plasmid PRDM9WT, Drug Conc. 5): 4.749
- 2^-dCq (H3K4me3 ChIP relative to H3 ChIP) (Figure 7 B, chr8:49932778-49932856 (Intergenic), Plasmid PRDM9WT, Drug Conc. 10): 4.289
- 2^-dCq (H3K4me3 ChIP relative to H3 ChIP) (Figure 7 C, chr2:40281930-40282015 Intragenic (SLC8A1-AS1), Plasmid Empty Vector, Drug Conc. 5): 0.3263
- 2^-dCq (H3K4me3 ChIP relative to H3 ChIP) (Figure 7 C, chr2:40281930-40282015 Intragenic (SLC8A1-AS1), Plasmid Empty Vector, Drug Conc. 10): 0.2399
- 2^-dCq (H3K4me3 ChIP relative to H3 ChIP) (Figure 7 C, chr2:40281930-40282015 Intragenic (SLC8A1-AS1), Plasmid PRDM9WT, Drug Conc. 5): 5.248
- 2^-dCq (H3K4me3 ChIP relative to H3 ChIP) (Figure 7 C, chr2:40281930-40282015 Intragenic (SLC8A1-AS1), Plasmid PRDM9WT, Drug Conc. 10): 4.126
- H3K4me3 levels at PRDM9-dependent intragenic and intergenic loci (ChIP-qPCR, in words) (HEK293T transfected with wild-type PRDM9, 48 h, various concentrations): negligible impact
- 2^-dCq (H3K4me3 ChIP-qPCR, IP relative to H3) (Figure 7 D chr3:165514798-165514911 Intragenic (BCHE), Plasmid Empty Vector, Drug Conc. 5): 0.55
- 2^-dCq (H3K4me3 ChIP-qPCR, IP relative to H3) (Figure 7 D chr3:165514798-165514911 Intragenic (BCHE), Plasmid Empty Vector, Drug Conc. 10): 0.9804
- 2^-dCq (H3K4me3 ChIP-qPCR, IP relative to H3) (Figure 7 D chr3:165514798-165514911 Intragenic (BCHE), Plasmid PRDM9WT, Drug Conc. 5): 6.945
- 2^-dCq (H3K4me3 ChIP-qPCR, IP relative to H3) (Figure 7 D chr3:165514798-165514911 Intragenic (BCHE), Plasmid PRDM9WT, Drug Conc. 10): 8.326
- 2^-dCq (H3K4me3 ChIP-qPCR, IP relative to H3) [1]: 90.8317
- 2^-dCq (H3K4me3 ChIP-qPCR, IP relative to H3) [2]: 79.4548
- 2^-dCq (H3K4me3 ChIP-qPCR, IP relative to H3) [3]: 29.3928
- 2^-dCq (H3K4me3 ChIP-qPCR, IP relative to H3) [4]: 64.1533
- 2^-dCq (H3K4me3 ChIP-qPCR, IP relative to H3) [5]: 64.4199
- 2^-dCq (H3K4me3 ChIP-qPCR, IP relative to H3) [6]: 72.9088
- 2^-dCq (H3K4me3 ChIP-qPCR, IP relative to H3) [7]: 34.845
- 2^-dCq (H3K4me3 ChIP-qPCR, IP relative to H3) [8]: 50.1539
- H3K4me3 ChIP-qPCR 2^-dCq (IP-Input) (chr2:40281930-40282015 Intragenic (SLC8A1-AS1), Figure 7 C, Empty Vector, Drug Conc. 5): 0.5453
- H3K4me3 ChIP-qPCR 2^-dCq (IP-Input) (chr2:40281930-40282015 Intragenic (SLC8A1-AS1), Figure 7 C, Empty Vector, Drug Conc. 10): 0.744
- H3K4me3 ChIP-qPCR 2^-dCq (IP-Input) (chr2:40281930-40282015 Intragenic (SLC8A1-AS1), Figure 7 C, PRDM9WT, Drug Conc. 5): 5.233
- H3K4me3 ChIP-qPCR 2^-dCq (IP-Input) (chr2:40281930-40282015 Intragenic (SLC8A1-AS1), Figure 7 C, PRDM9WT, Drug Conc. 10): 7.127
- H3K4me3 ChIP-qPCR 2^-dCq (IP-Input) (chr2:128811847-128811944 (Intergenic), Figure 7 A, Empty Vector, Drug Conc. 5): 1.312
- H3K4me3 ChIP-qPCR 2^-dCq (IP-Input) (chr2:128811847-128811944 (Intergenic), Figure 7 A, Empty Vector, Drug Conc. 10): 1.714
- H3K4me3 ChIP-qPCR 2^-dCq (IP-Input) (chr2:128811847-128811944 (Intergenic), Figure 7 A, PRDM9WT, Drug Conc. 5): 3.31
- H3K4me3 ChIP-qPCR 2^-dCq (IP-Input) (chr2:128811847-128811944 (Intergenic), Figure 7 A, PRDM9WT, Drug Conc. 10): 4.0213
- H3K4me3 ChIP-qPCR 2^-dCq (IP-Input) (chr8:49932778-49932856 (Intergenic), Figure 7 B, Empty Vector, Drug Conc. 5): 0.869
- H3K4me3 ChIP-qPCR 2^-dCq (IP-Input) (chr8:49932778-49932856 (Intergenic), Figure 7 B, Empty Vector, Drug Conc. 10): 0.9683
- H3K4me3 ChIP-qPCR 2^-dCq (IP-Input) (chr8:49932778-49932856 (Intergenic), Figure 7 B, PRDM9WT, Drug Conc. 5): 6.096
- H3K4me3 ChIP-qPCR 2^-dCq (IP-Input) (chr8:49932778-49932856 (Intergenic), Figure 7 B, PRDM9WT, Drug Conc. 10): 6.298
- <Cq> (Plasmid PRDM9WT, Drug Conc. 5): 21.5667
- <Cq> (Plasmid PRDM9WT, Drug Conc. 10): 21.103
